Results as given in patent US20100311714A1, “1H-IMIDAZO[4,5-c]QUINOLINONE COMPOUNDS” (priority 2009, published 2010).
Where two headings read alike, the source gives them in different places.

Target: T1, PI3K delta (Homo sapiens, UniProt O00329)
T1 construct: for the full-length p110-d subunit are generated and fused by overlapping PCR; His tag (C); made in house; host or cells: baculovirus BV1060; Tn5 (Trichoplusia ni) or TiniPro insect cells
Test: PI3K delta kinase assay (Kinase-Glo luminescence)
Assay type: biochemical
Description: In a more preferred assay, the kinase reaction is performed in a final volume of 10 μL per well of a low volume non binding CORNING, 384 well black plate (Cat. No. #3676). The final concentrations of ATP and phosphatidyl inositol (PI) in the assay are 1 μM and 10 μg/mL respectively. The reaction is started by the addition of ATP.
The components of the assay are added per well as follows:
50 nL test compounds in 90% DMSO per well, in columns 1-20, 8 concentrations (⅓ and 1/3.33 serial dilution step) in single. • Low control: […] of 90% DMSO in half the wells of columns 23-24 (0.45% in final). • High control: 50 nL of reference compound (e.g. compound of Example 7 in WO 2006/122806) in the other half of columns 23-24 (2.5 μM in final). • Standard: 50 nL of reference compound as just mentioned diluted as the test compounds in columns 21-22 • 20 mL ‘buffer’ are prepared per assay: • 200 μL of 1M TRIS HCl pH7.5 (10 mM in final) • 60 μL of 1M MgCl2 (3 mM in final) • 500 μL of 2M NaCl (50 mM in final) • 100 μL of 10% CHAPS (0.05% in final) • 200 μL of 100 mM DTT (1 mM in final) • 18.94 mL of nanopure water • 10 mL ‘PI’ are prepared per assay: • 200 μL of 1 mg/ml L-alpha-Phosphatidylinositol (Liver Bovine, Avanti Polar Lipids Cat. No. 840042C MW=909.12) prepared in 3% OctylGlucoside (10 μg/ml in final) • 9.8 mL of ‘buffer’ • 10 mL ‘ATP’ are prepared per assay: • 6.7 μL of 3 mM stock of ATP giving a final concentration of 1 μM per well • 10 mL of ‘buffer’ • 2.5 mL of each PI3K construct are prepared per assay in ‘PI’ with the following final concentration: • 10 nM PI3K alfa EMV B1075 • 25 nM beta EMV BV949 • 10 nM delta EMV BV1060 • 150 nM gamma EMV BV950 • 5 μL of ‘PI/PI3K’ are added per well. • 5 μl ‘ATP’ are added per well to start the reaction. • The plates are then incubated at room temperature for 60 minutes (alfa, beta, delta) or 120 minutes (gamma). • The reaction is terminated by the addition of 10 μL Kinase-Glo (Promega Cat. No. #6714). • The assay plates are read after 10 minutes in Synergy 2 reader (BioTek, Vermont USA) with an integration time of 100 milliseconds and sensitivity set to 191. • Output: The High control is around 60′000 counts and the Low control is 30′000 or lower • This luminescence assay gives a useful Z′ ratio between 0.4 and 0.7
PI3Kδ BV-1060 p85(iSH2)-Gly Linker-p110d(Full-Length)-C-Term His Tag
PI3K delta is purified in three chromatographic steps: immobilized metal affinity chromatography on a Ni Sepharose resin (GE Healthcare), gel filtration utilizing a Superdex 200 26/60 column (GE Healthcare), and finally a anion exchange step on a Q-HP column (GE Healthcare). All buffers are chilled to 4° C. and lysis is performed chilled on ice. Column fractionation is performed rapidly at room temperature. Typically frozen insect cells are lysed in a hypertonic lysis buffer and applied to a prepared IMAC column. The resin is washed with 3-5 column volumes of lysis buffer, followed by 3-5 column volumes wash buffer containing 45 mM imidazole, and the target protein is then eluted with a buffer containing 250 mM imidazole. Fractions are analyzed by Coomassie stained SDS-PAGE gels, and fractions containing the target protein are pooled and applied to a prepared GFC column. Fractions from the GFC column are analyzed by Coomassie stained SDS-PAGE gels, and fractions containing the target protein are pooled. The pool from the GFC column is diluted into a low salt buffer and applied to a prepared Q-HP column. The column is washed with low salt buffer until a stable A280 baseline absorbance is achieved, and eluted using a 20 column volume gradient from 0 mM NaCl to 500 mM NaCl. Again, fractions from the Q-HP column are analyzed by Coomassie stained SDS-PAGE gels, and fractions containing the target protein are pooled. The final pool is dialyzed into a storage buffer containing 50% glycerol and stored at −20° C. The final pool is assayed for activity in the phosphoinostitol kinase assay. […]

T1 sequence (O00329 with tags, fused parts or gaps limits assumed): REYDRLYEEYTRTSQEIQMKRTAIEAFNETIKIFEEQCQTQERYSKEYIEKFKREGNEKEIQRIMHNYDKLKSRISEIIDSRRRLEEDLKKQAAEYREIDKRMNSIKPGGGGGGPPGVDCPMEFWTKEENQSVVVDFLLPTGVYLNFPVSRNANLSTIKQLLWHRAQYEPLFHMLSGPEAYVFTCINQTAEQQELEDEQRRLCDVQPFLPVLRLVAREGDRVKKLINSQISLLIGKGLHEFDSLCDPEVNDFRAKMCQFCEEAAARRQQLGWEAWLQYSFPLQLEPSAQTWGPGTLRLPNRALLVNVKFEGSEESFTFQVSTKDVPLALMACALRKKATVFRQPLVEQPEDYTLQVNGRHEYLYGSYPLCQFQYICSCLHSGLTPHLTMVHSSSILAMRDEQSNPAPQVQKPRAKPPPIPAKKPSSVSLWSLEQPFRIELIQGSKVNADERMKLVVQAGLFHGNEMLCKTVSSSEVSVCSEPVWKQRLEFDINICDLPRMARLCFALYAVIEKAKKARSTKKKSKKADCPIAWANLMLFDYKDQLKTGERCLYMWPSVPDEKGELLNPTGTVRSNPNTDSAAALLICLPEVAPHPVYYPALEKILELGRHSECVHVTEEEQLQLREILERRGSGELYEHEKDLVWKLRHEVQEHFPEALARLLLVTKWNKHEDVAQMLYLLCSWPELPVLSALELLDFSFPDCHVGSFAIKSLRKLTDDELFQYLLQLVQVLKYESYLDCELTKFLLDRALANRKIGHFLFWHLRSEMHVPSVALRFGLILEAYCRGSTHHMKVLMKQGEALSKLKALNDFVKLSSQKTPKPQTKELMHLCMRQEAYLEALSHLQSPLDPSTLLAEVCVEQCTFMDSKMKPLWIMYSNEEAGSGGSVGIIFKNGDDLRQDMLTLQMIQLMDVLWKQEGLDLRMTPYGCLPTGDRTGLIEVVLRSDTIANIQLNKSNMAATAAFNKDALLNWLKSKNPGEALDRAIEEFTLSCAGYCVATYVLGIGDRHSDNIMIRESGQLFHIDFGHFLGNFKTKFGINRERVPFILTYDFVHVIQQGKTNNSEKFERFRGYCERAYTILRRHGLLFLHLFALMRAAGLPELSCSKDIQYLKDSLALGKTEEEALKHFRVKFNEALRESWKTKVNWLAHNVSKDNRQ

`CNc1cc(-c2ccc3ncc4c(c3c2)n(-c2cccnc2C)c(=O)n4C)cnc1C` [Example 2.32, 3-Methyl-8-(6-methyl-5-methylamino-pyridin-3-yl)-1-(2-methyl-pyridin-3-yl)-1,3-dihydro-imidazo[4,5-c]quinolin-2-one] was tested, and the IC50 (read-out: EPK_PI3Kdelta/IC50) was 31 nM.
Work on `Cc1ncccc1-n1c(=O)n(C)c2cnc3ccc(-c4cncc(N)c4)cc3c21` [Example 2.25, 8-(5-Amino-pyridin-3-yl)-3-methyl-1-(2-methyl-pyridin-3-yl)-1,3-dihydro-imidazo[4,5-c]quinolin-2-one] yielded an IC50 (read-out: EPK_PI3Kdelta/IC50) of 57 nM.
For `COCc1ncc(-c2ccc3ncc4c(c3c2)n(-c2ccc(N3CCC3)nc2C)c(=O)n4C)cc1OC(C)C` [Example 23.2, 1-(6-Azetidin-1-yl-2-methyl-pyridin-3-yl)-8-(5-isopropoxy-6-methoxymethyl-pyridin-3-yl)-3-methyl-1,3-dihydro-imidazo[4,5-c]quinolin-2-one], the IC50 (read-out: EPK_PI3Kdelta/IC50) was 31 nM.
`COc1ccc(-c2ccc3ncc4c(c3c2)n(-c2cccnc2C)c(=O)n4C)cc1OC` [Example 2.9, 8-(3,4-Dimethoxy-phenyl)-3-methyl-1-(2-methyl-pyridin-3-yl)-1,3-dihydro-imidazo[4,5-c]quinolin-2-one] gave an IC50 (read-out: PI3Kdelta/IC50) of 37 nM.
`CCOc1ccc(-c2ccc3ncc4c(c3c2)n(-c2ccc(F)nc2C)c(=O)n4C)cn1` [Example 7.3, 8-(6-Ethoxy-pyridin-3-yl)-1-(6-fluoro-2-methyl-pyridin-3-yl)-3-methyl-1,3-dihydro-imidazo[4,5-c]quinolin-2-one] was tested, and the IC50 (read-out: PI3Kdelta/IC50) was 71 nM.
For `Cc1ncccc1-n1c(=O)n(C)c2cnc3ccc(-c4ccc(N)nc4)cc3c21` [Example 2.7, 8-(6-Amino-pyridin-3-yl)-3-methyl-1-(2-methyl-pyridin-3-yl)-1,3-dihydro-imidazo[4,5-c]quinolin-2-one], the IC50 (read-out: PI3Kdelta/IC50) was 35 nM.
Work on `Cc1nc(N2CCC2)ccc1-n1c(=O)n(C)c2cnc3ccc(-c4cncc(N5CCC5)c4)cc3c21` [Example 23.1, 1-(6-Azetidin-1-yl-2-methyl-pyridin-3-yl)-8-(5-azetidin-1-yl-pyridin-3-yl)-3-methyl-1,3-dihydro-imidazo[4,5-c]quinolin-2-one] yielded an IC50 (read-out: EPK_PI3Kdelta/IC50) of 84 nM.
`CCOc1ncc(-c2ccc3ncc4c(c3c2)n(-c2ncccc2C)c(=O)n4C)cn1` [Example 3.1, 8-(2-Ethoxy-pyrimidin-5-yl)-3-methyl-1-(3-methyl-pyridin-2-yl)-1,3-dihydro-imidazo[4,5-c]quinolin-2-one] showed an IC50 (read-out: PI3Kdelta/IC50) of 851 nM.
Work on `Cc1nc(N(C)CCO)ccc1-n1c(=O)n(C)c2cnc3ccc(-c4cnc(N)c(C(F)(F)F)c4)cc3c21` [Example 26.1, 8-(6-Amino-5-trifluoromethyl-pyridin-3-yl)-1-{6-[(2-hydroxy-ethyl)-methyl-amino]-2-methyl-pyridin-3-yl}-3-methyl-1,3-dihydro-imidazo[4,5-c]quinolin-2-one] yielded an IC50 (read-out: EPK_PI3Kdelta/IC50) of under 3 nM.
Compound `Cc1nc(F)ccc1-n1c(=O)n(C)c2cnc3ccc(-c4cncc(C(C)(C)O)c4)cc3c21` [Example 7.8, 1-(6-Fluoro-2-methyl-pyridin-3-yl)-8-[5-(1-hydroxy-1-methyl-ethyl)-pyridin-3-yl]-3-methyl-1,3-dihydro-imidazo[4,5-c]quinolin-2-one] has an IC50 (read-out: EPK_PI3Kdelta/IC50) of 38 nM.
With `CNc1ncc(-c2ccc3ncc4c(c3c2)n(-c2ncccc2C)c(=O)n4C)cn1` [Example 3.4, 3-Methyl-8-(2-methylamino-pyrimidin-5-yl)-1-(3-methyl-pyridin-2-yl)-1,3-dihydro-imidazo[4,5-c]quinolin-2-one] the IC50 (read-out: PI3Kdelta/IC50) was 236 nM.
In the case of `CNc1ccc(-c2ccc3ncc4c(c3c2)n(-c2ccc(F)nc2C)c(=O)n4C)cn1` [Example 7.4, 1-(6-Fluoro-2-methyl-pyridin-3-yl)-3-methyl-8-(6-methylamino-pyridin-3-yl)-1,3-dihydro-imidazo[4,5-c]quinolin-2-one], the IC50 (read-out: PI3Kdelta/IC50) is reported as 21 nM.
In the case of `Cc1nc(C(F)(F)F)ccc1-n1c(=O)n(C)c2cnc3ccc(-c4cncc(C(C)(C)O)c4)cc3c21` [Example 33.1, 8-[5-(1-Hydroxy-1-methyl-ethyl)-pyridin-3-yl]-3-methyl-1-(2-methyl-6-trifluoromethyl-pyridin-3-yl)-1,3-dihydro-imidazo[4,5-c]quinolin-2-one], the IC50 (read-out: EPK_PI3Kdelta/IC50) is reported as 6 nM.
Compound `Cc1ncccc1-n1c(=O)n(C)c2cnc3ccc(-c4cncc(NC(C)C)c4)cc3c21` [Example 2.24, 8-(5-Isopropylamino-pyridin-3-yl)-3-methyl-1-(2-methyl-pyridin-3-yl)-1,3-dihydro-imidazo[4,5-c]quinolin-2-one] has an IC50 (read-out: EPK_PI3Kdelta/IC50) of 31 nM.
Compound `CCNc1ncc(-c2ccc3ncc4c(c3c2)n(-c2ccc(N3CC[C@@H](O)C3)nc2C)c(=O)n4C)cc1COCC` [Example 34.4, 8-(5-Ethoxymethyl-6-ethylamino-pyridin-3-yl)-1-[6-((R)-3-hydroxy-pyrrolidin-1-yl)-2-methyl-pyridin-3-yl]-3-methyl-1,3-dihydro-imidazo[4,5-c]quinolin-2-one] has an IC50 (read-out: EPK_PI3Kdelta/IC50) of 26 nM.
`CCOc1ccc(-c2ccc3ncc4c(c3c2)n(-c2ccc(C(C)(C)O)nc2C)c(=O)n4C)cn1` [Example 31.4, 8-(6-Ethoxy-pyridin-3-yl)-1-[6-(1-hydroxy-1-methyl-ethyl)-2-methyl-pyridin-3-yl]-3-methyl-1,3-dihydro-imidazo[4,5-c]quinolin-2-one] gave an IC50 (read-out: EPK_PI3Kdelta/IC50) of 36 nM.
`Cc1nc(C(C)(C)O)ccc1-n1c(=O)n(C)c2cnc3ccc(-c4cnc(N)c(C(F)(F)F)c4)cc3c21` [Example 31.5, 8-(6-Amino-5-trifluoromethyl-pyridin-3-yl)-1-[6-(1-hydroxy-1-methyl-ethyl)-2-methyl-pyridin-3-yl]-3-methyl-1,3-dihydro-imidazo[4,5-c]quinolin-2-one] showed an IC50 (read-out: EPK_PI3Kdelta/IC50) of under 3 nM.
Compound `COc1cc(-c2ccc3ncc4c(c3c2)n(-c2cccnc2C)c(=O)n4C)cnc1C(OC)OC` [Example 2.27, 8-(6-Dimethoxymethyl-5-methoxy-pyridin-3-yl)-3-methyl-1-(2-methyl-pyridin-3-yl)-1,3-dihydro-imidazo[4,5-c]quinolin-2-one] has an IC50 (read-out: EPK_PI3Kdelta/IC50) of 406 nM.
Compound `CCOc1cc(-c2ccc3ncc4c(c3c2)n(-c2ccc(N3CCC3)nc2C)c(=O)n4C)cnc1COC` [Example 23.5, 1-(6-Azetidin-1-yl-2-methyl-pyridin-3-yl)-8-(5-ethoxy-6-methoxymethyl-pyridin-3-yl)-3-methyl-1,3-dihydro-imidazo[4,5-c]quinolin-2-one] has an IC50 (read-out: EPK_PI3Kdelta/IC50) of 25 nM.
`CNc1ncc(-c2ccc3ncc4c(c3c2)n(-c2ccc(N3CC[C@H](O)C3)nc2C)c(=O)n4C)cc1F` [Example 32.2, 8-(5-Fluoro-6-methylamino-pyridin-3-yl)-1-[6-((S)-3-hydroxy-pyrrolidin-1-yl)-2-methyl-pyridin-3-yl]-3-methyl-1,3-dihydro-imidazo[4,5-c]quinolin-2-one] was tested, and the IC50 (read-out: EPK_PI3Kdelta/IC50) was 36 nM.
With `COc1nc(N2CCNCC2)ccc1-n1c(=O)n(C)c2cnc3ccc(-c4cnc(N)c(C(F)(F)F)c4)cc3c21` [Example 9.2, 8-(6-Amino-5-trifluoromethyl-pyridin-3-yl)-1-(2-methoxy-6-piperazin-1-yl-pyridin-3-yl)-3-methyl-1,3-dihydro-imidazo[4,5-c]quinolin-2-one] the IC50 (read-out: PI3Kdelta/IC50) was 15 nM.
